Reference: patent publication US6399580B1, “Methods and compositions for stimulating tissue growth and epithelial moisturization” (The Regents of the University of California, priority 1994, dated 2002)
Several values for one entry are separate records, joined by “and”; a condition that tells them apart may be missing. Identical values can stand only once.

Columns and labels:
murine epidermis = assay: Epidermal DNA synthesis, [3H]-thymidine incorporation in vivo; parameters: species or system mouse
Experimental: To assess the effects of a topical β-glucocerebrosidase inhibitor, conduritol-B-epoxide (CBE) in epidermal DNA synthesis two slightly different dosage protocols have been employed. In all cases, mice were treated topically with 20 μl to 40 μl of 250 nmol/μl CBE bid for 2-5 days on the right flank. On the last day, the mice were injected intraperitoneally with ^3H-thymidine (1 μCi/G body weight) diluted 1:10 in 100-200 μl isotonic NaCl. After one hour the mice were sacrificed. Whole skin was excised and subcutaneous fascia and fat were removed by scraped. Skin samples were placed dermis side downward onto 10 mM EDTA in phosphate buffered saline (PBS-CMF; pH 7.4) and incubated at 37° C. for 40 min. The skin was blotted dry with a tissue and epidermis removed by scraping with a surgical blade. The epidermis was minced into small pieces and placed in microcentrifuge vials. Samples were immediately snap frozen and stored in liquid nitrogen until immediately prior to preparation of the epidermal homogenates. 300 μl of 10 mM EDTA in PBS-CMF (pH 7.4) was added to all samples which then underwent tissue homogenization using Polytron (15 sec, ×2 on ice. Polytron tip was rinsed between each homogenization with 400 μl 10 mM EDTA in PBS-CMF. Rinses were combined with same original samples. Samples were sonicated twice for 10 sec on ice. 100 μl of 20% TCA was added and left for 10 min at 4° C. Samples were centrifuged at 2000×g at 4° C. for 5 min. The supernatant was discarded. 500 μl of 5% TCA was added and the samples were centrifuged at 2000×g at 4° C. for 5 min. The supernatant was discarded and this step was repeated again. The precipitate was resuspended in 1ml of 1N NaOH and vortexed. 400 μl or NaOH plus 400 μl of 1N HCl with 8ml Ecolume was used as a background blank. Vials were counted the following day.
We next determined whether the topical administration of structurally similar but less efficient β-glucosidase inhibitors would induce epidermal hyperproliferation. Animals were treated topically twice daily with either Conduritol-B-epoxide, Conduritol B (CB), or deoxynojirimycin (dNJM), each at 40 μl of 250 nmol/μl twice daily, as described in Example 10. After 24 hours, [^3H]-thymidine was injected intraperitoneally and incorporation of thymidine into DNA was determined (FIG. 26 A&B). […] This reduced activity is a result of the relative availability of these inhibitors to in vivo tissues.
Animals were treated as described in Example 10.
We next determined whether occlusion with a vapor-impermeable membrane would enhance the effects of a β-glucocerebrosidase inhibitor on epidermal DNA synthesis. […] After 24 hrs animals were injected with [^3H]-thymidine, and incorporation into DNA was determined (Proksch, et. al., J. Clin. Invest. 87:1668-1673, 1991).

[1] = test system: acetone treated skin sites; assay: Barrier recovery of acetone treated skin sites; assay type: in vivo, mouse; conditions: MUX 0.5 or 1.0 %(wt:vol) topical
[2] = test system: cultured human keratinocytes; assay: [3H]-thymidine incorporation and DNA content in cultured human keratinocytes; assay type: cell-based; conditions: for DNA content / thymidine incorporation: 24 hours of treatment, Cer 5 or 10 μM, FIG. 9
Experimental: To determine the ability of exogenous glucosylceramides (GlcCER) to stimulate epidermal proliferation, we applied various concentrations of GlcCER to cultural human keratinocytes (third passage). Keratinocytes were isolated from human neonatal foreskins by a modification of the method of Pittelkow, M. R. and Scott, R. E. ( (1986) Proc. Mayo Clin. 61:771-777) Cells were added to 100 mm plastic Petri dishes at a density of 1 to 2×10^4 cells/cm^2, and grown initially in 10mls of Keratinocyte Growth Medium (KGM) (Clonetics, San Diego, Calif.) with 0.07 mM calcium. The cultures were maintained at 35° C. under 5% CO2 in air, with medium changes performed three times weekly. After the cells reached 70%-80% confluence, they were switched to KGM medium containing 1.2 mM calcium, and harvested at one week post-confluence. GlcCER was added for the last 24 hours of culture and ^3H-thymidine (1 μCi/ml) was added one-to-three hours prior to harvesting of cells for measurement of DNA synthesis and DNA content. (Proksch, E., et al., J. Clin. Invest. 87:1668-1673 (1991).
Using the method described in Example 5, incorporation of [^3H]-thymidine and total DNA content were measured in cultured human keratinocytes (CHK) grown in serum-free keratinocyte growth medium (KGM) supplemented with 0.07 mM .calcium. Cultured cell were further supplemented as indicated, with ceramide (Cer; 5 or 10 μM), glucosylceramide (GlcCER; 1.25 or 2.5 μM), or a combination of ceramide and glucosylceramide (10 and 1.25 μM, respectively).
(§1) CHK cells were grown in serum-free KGM supplemented both with 0.07 mM calcium and 10 μM ceramide (CER). Increasing concentrations of glucosylceramide were added (2.5 to 10 μM), and both [^3H]-thymidine (1 μCi/ml) and [^14C]-leucine (1 μCi/ml) incorporation assays were performed.
CHK cells were grown (as in Example 6)in serum-free KGM (0.07 mM calcium) and supplemented with increasing concentrations of ceramide (CER) alone (dark bars), glucosylceramide (GlcCer) alone (back row), or the combination of ceramide (10 μM) with increasing glucosylceramide (front row). […] Glucosylceramide alone again stimulated thymidine incorporation (>20%) at low concentrations (1.25 and 2.5 μM).
CHK cells were grown (as in Example 6) in serum-free KGM ([…]) supplemented with glucosylceramide (GlcCER) alone, or in combination with the β-glucocerebrosidase-inhibitor, CBE (3 or 10 μM) (FIG. 12). Incorporation of [^3H]-thymidine was measured at 24 hours following supplementation, and values are reported as percent of unsupplemented controls (mean ±S.D.; n>6). […] A low CBE concentration (3 μM) was ineffective.

CHK cells = assay: [14C]-leucine incorporation in CHK cells; assay type: cell-based, human; conditions: GlcCER 2.5 and 5.0 μM with 10 μM ceramide; FIG. 10
Experimental: as §1

[3] = topical 40 μl of 250 nmol/μl twice daily, after 24 hours
[4] = direct application of lipid alone, treated as in Example 10, FIG. 26B
[5] = GlcCER 1.25 μM, 24 hours, NHK cells, n=6±S.E.

Which “epidermal DNA synthesis ([3H]-thymidine incorporation)” value (murine epidermis; [3]) does the source give for `O[C@H]1[C@H](O)[C@@H](O)C=C[C@@H]1O` [CB, Conduritol B] here?
The value was “Neither CB or dNJM at this concentration induced an increase in DNA synthesis”.

What does the source list for `Cc1cc(=O)oc2cc(O[C@@H]3OC[C@@H](O)[C@H](O)[C@H]3O)ccc12` [MUX, 4-methylumbelliferyl xyloside]?
barrier-disrupting effect [1]: comparable to the two conduritol is compounds (BrCBE and CBE); barrier recovery ([1]; at 2, 4 and 6 hours): delayed barrier recovery

For `OC[C@H]1NC[C@H](O)[C@@H](O)[C@@H]1O` [dNJM, deoxynojirimycin], which “epidermal DNA synthesis ([3H]-thymidine incorporation)” value (murine epidermis; [3]) is on record?
Its value is “Neither CB or dNJM at this concentration induced an increase in DNA synthesis”.

For ceramide, which “epidermal DNA synthesis ([3H]-thymidine incorporation)” value (murine epidermis; [4]) is on record?
The value was “Neither GalCER nor ceramide (CER) alone at this concentration (c.f. structures in FIGS. 4 and 6) induced an increase”.

And the DNA content ([2]; GlcCER 1.25 μM)?
The DNA content was “corresponding decrease in DNA content”.

And the thymidine incorporation ([2]; GlcCER 1.25 μM)?
The thymidine incorporation was “inhibited thymidine incorporation”.

What about the “[3H]-thymidine incorporation, of control” value ([2]; ceramide alone 10 μM, FIG. 11) of the same compound?
The value was 35 % of control.

And the “inhibition of [3H]-thymidine incorporation” value ([2]; ceramide alone 10 μM, FIG. 11)?
Its value is “approximately 65%”.

For galactosylceramide [GalCER], which “epidermal DNA synthesis ([3H]-thymidine incorporation)” value (murine epidermis; [4]) is on record?
Its value is “Neither GalCER nor ceramide (CER) alone at this concentration (c.f. structures in FIGS. 4 and 6) induced an increase”.

What does the source list for glucosylceramide [GlcCER]?
epidermal DNA synthesis, combination of GlcCER with CBE (murine epidermis; FIG. 26B): additive effect; epidermal DNA synthesis ([3H]-thymidine incorporation) (murine epidermis; [4]): significant increase; keratinocyte proliferation, further increase ([2]; 5 μM): No further increase; DNA content ([2]; GlcCER 1.25 μM): increased; thymidine incorporation ([2]; GlcCER 1.25 μM): increased; thymidine incorporation, increase over ceramide alone ([2]; GlcCER 1.25 μM co-administered with ceramide 10 μM, 24 hours): approximately 2 fold; DNA Content (% of Control) [2, 5]: 124 ± 2 % of Control and 111 ± 6 % of Control; ^3H]-Thym. Incorporation (% of control) [2, 5]: 118 ± 0.5 % of control and 117 ± 2.0 % of control; override of the ceramide effect on thymidine incorporation ([2]; GlcCER 10 μM with 10 μM ceramide): did not override the ceramide effect; thymidine incorporation relative to ceramide-containing control ([2]; GlcCER 2.5 and 5.0 μM with 10 μM ceramide, FIG. 10): stimulated; concentration of maximum effect on keratinocyte proliferation ([2]; cultured human keratinocytes, 24 hours): 1.25 µM; inhibitory effect of ceramide on thymidine incorporation ([2]; glucosylceramide 1.25 μM coadministered with ceramide 10 μM): reversed; stimulation of thymidine incorporation ([2]; glucosylceramide alone, 1.25 and 2.5 μM): > 20%; proliferation rates ([2]; higher concentrations of GlcCER (above 1.25 and 2.5 μM)): decreased; leucine incorporation (CHK cells): not altered
